Data as given in publication PMC10938783, “A novel pan-PI3K inhibitor KTC1101 synergizes with anti-PD-1 therapy by targeting tumor suppression and immune activation” (Molecular Cancer, 2024).

Experiments:
Format in all cases: cell-based
PC3 cells = test: Cell proliferation MTT assay; settings: Homo sapiens, PC-3; PC3, 48-h treatment; read-out: IC50 cell viability
Experimental: (§1) Cell proliferation was measured by MTT assay as previously described. The cells were seeded in a volume of 200 μL/well in 96-well plates. The next day, cells were treated with DMSO or a series of concentrations of KTC1101. After a 48-h incubation period, 20 μL of MTT (5 mg/mL) was added to each well. After further incubation for 4 h at 37 °C, the absorbance at 490 nm was measured using an iMark microplate reader (BIO-RAD, Hercules, CA, USA).

CAL33 cells = test: Cell proliferation MTT assay; settings: Homo sapiens, CAL-33; CAL33, 48-h treatment; read-out: IC50 cell viability
Experimental: as §1

TMD8 cells = test: Cell proliferation MTT assay; settings: Homo sapiens; TMD8, 48-h treatment; read-out: IC50 cell viability
Experimental: as §1

HSC2 cells = test: Cell proliferation MTT assay; settings: Homo sapiens, HSC-2; HSC2, 48-h treatment; read-out: IC50 cell viability
Experimental: as §1

HSC4 cells = test: Cell proliferation MTT assay; settings: Homo sapiens, HSC-4; HSC4, 48-h treatment; read-out: IC50 cell viability
Experimental: as §1

SF-295 = test: JFCR39 sulforhodamine B growth assay; settings: Homo sapiens, SF-295, 48 h
Experimental: (§2) JFCR39 drug discovery system was used to measure the growth inhibitory activities and identify the target of KTC1101. The JFCR39 panel consists of 39 cell lines seeded in 96-well plates. After 48-h treatment with KTC1101, cell growth was measured using the sulforhodamine B assay. […] The deviation of log GI50 for each cell line from the average log GI50 across the JFCR39 panel was plotted as a fingerprint. MG-MID (mean of Log GI50 values) represents the average log GI50 for all 39 cell lines. The most sensitive and least sensitive cell lines were identified by calculating the difference in their log GI50 values (Range) and the difference between the most sensitive cell line and the average GI50 on the JFCR39 panel (Delta). The fingerprint of KTC1101 was compared with the fingerprints of reference compounds in the database. The Pearson correlation coefficient (r) was calculated (n = 39).

SNB-78 = test: JFCR39 sulforhodamine B growth assay; settings: Homo sapiens, SNB-78, 48 h
Experimental: as §2

OVCAR-4 = test: JFCR39 sulforhodamine B growth assay; settings: Homo sapiens, OVCAR-4, 48 h
Experimental: as §2

MKN74 = test: JFCR39 sulforhodamine B growth assay; settings: Homo sapiens, MKN-74; MKN74, 48 h
Experimental: as §2

HBC-5 = test: JFCR39 sulforhodamine B growth assay; settings: Homo sapiens, HBC5; HBC-5, 48 h
Experimental: as §2

SNB-75 = test: JFCR39 sulforhodamine B growth assay; settings: Homo sapiens, SNB-75, 48 h
Experimental: as §2

OVCAR-3 = test: JFCR39 sulforhodamine B growth assay; settings: Homo sapiens, OVCAR-3, 48 h
Experimental: as §2

DMS273 = test: JFCR39 sulforhodamine B growth assay; settings: Homo sapiens, DMS-273; DMS273, 48 h
Experimental: as §2

HCC2998 = test: JFCR39 sulforhodamine B growth assay; settings: Homo sapiens, HCC 2998; HCC2998, 48 h
Experimental: as §2

HCT-15 = test: JFCR39 sulforhodamine B growth assay; settings: Homo sapiens, HCT-15, 48 h
Experimental: as §2

HBC-4 = test: JFCR39 sulforhodamine B growth assay; settings: Homo sapiens, HBC4; HBC-4, 48 h
Experimental: as §2

DU-145 = test: JFCR39 sulforhodamine B growth assay; settings: Homo sapiens, DU-145, 48 h
Experimental: as §2

OVCAR-5 = test: JFCR39 sulforhodamine B growth assay; settings: Homo sapiens, OVCAR-5, 48 h
Experimental: as §2

HCT-116 = test: JFCR39 sulforhodamine B growth assay; settings: Homo sapiens, HCT-116, 48 h
Experimental: as §2

MDA-MB-231 = test: JFCR39 sulforhodamine B growth assay; settings: Homo sapiens, MDA-MB-231, 48 h
Experimental: as §2

U251 = test: JFCR39 sulforhodamine B growth assay; settings: Homo sapiens, U-251; U251, 48 h
Experimental: as §2

NCI-H226 = test: JFCR39 sulforhodamine B growth assay; settings: Homo sapiens, NCI-H226, 48 h
Experimental: as §2

A549 = test: JFCR39 sulforhodamine B growth assay; settings: Homo sapiens, A549, 48 h
Experimental: as §2

LOX-IMVI = test: JFCR39 sulforhodamine B growth assay; settings: Homo sapiens, 48 h
Experimental: as §2

[1] = tested on: PC3, TMD8, HSC2, HSC4, CAL33 cells; test: Cell proliferation MTT assay, five tumor cell lines; settings: Homo sapiens; cell viability assay; read-out: IC50 range over PC3, TMD8, HSC2, HSC4, CAL33 cells
Experimental: as §1

CD8^+ T cells = test: T cell suppression assay (CFSE); settings: Mus musculus, 72 h, read-out: IC50 proliferation
Experimental: (§3) Spleens from naive mice were isolated and ground through 70-μm filters to generate a single-cell suspension. After RBC lysis, single-cell suspensions were stained with CD3, CD8, CD4, CD25 or CD127 antibodies. Viable CD8^+ T cells (CD3^+CD8^+), CD4^+ T cells (CD3^+CD4^+), and Tregs (CD3^+CD4^+CD25^+CD127^low/−) from single-cell suspensions were sorted by FACS. Then T cells were labelled with […] in pre-warmed PBS for 10 min at 37 °C. The CFSE-labelled T cells were seeded in 96-well plates pre-coated with 10 μg/mL CD3 and 1 μg/mL CD28 antibodies and cultured in 1640 media with 10% FBS, 1 mM Sodium Pyruvate (Thermo, 11,360,070), 50 μM β-ME and 100 IU/mL IL2, as well as different concentrations of KTC1101 or solvent control. After 72 h, cells were harvested and the CFSE signal was measured by flow cytometry. Cell growth rate was calculated by the percentage of live, proliferated cell number at each drug concentration vs. solvent control.

CD4^+ T cells = test: T cell suppression assay (CFSE); settings: Mus musculus, 72 h, read-out: IC50 proliferation
Experimental: as §3

Compound: COc1cc(N)cc2c1nc(C(F)F)n2-c1nc(N2CCCOCC2)nc(N2CCOCC2)n1 [KTC1101, 2-(difluoromethyl)-4-methoxy-1-(4-morpholino-6-(1,4-oxazepan-4-yl)-1,3,5-triazin-2-yl)-1H-benzo[d]imidazol-6-amine]
- IC50 (PC3 cells): 23.2 nM
- IC50 (CAL33 cells): 124 nM
- IC50 (TMD8 cells): 20.6 nM
- IC50 (HSC2 cells): 117 nM
- IC50 (HSC4 cells): 50.6 nM
- GI50 (SF-295): 14.8 nM
- GI50 (SNB-78): 22.9 nM
- GI50 (OVCAR-4): 61.7 nM
- GI50 (MKN74): 70.8 nM
- GI50 (HBC-5): 14.5 nM
- GI50 (SNB-75): 10 nM
- GI50 (OVCAR-3): 15.8 nM
- GI50 (DMS273): 11 nM
- GI50 (HCC2998): 36.3 nM
- GI50 (HCT-15): 17.8 nM
- GI50 (HBC-4): 24.5 nM
- GI50 (DU-145): 23.4 nM
- GI50 (OVCAR-5): 23.4 nM
- GI50 (HCT-116): 31.6 nM
- GI50 (MDA-MB-231): 30.2 nM
- GI50 (U251): 38 nM
- GI50 (NCI-H226): 16.6 nM
- GI50 (A549): 21.9 nM
- GI50 (LOX-IMVI): 17.4 nM
- IC50 [1]: 20 to 130 nM
- IC50 (CD8^+ T cells): 31.7 nM
- IC50 (CD4^+ T cells): 16 nM
